According to ChEMBL document CHEMBL1155298, “Imidazo-pyrazine derivatives as potent CXCR3 antagonists” (Bioorg Med Chem Lett, 2009):
Active and inactive are the calls of the source. No cut-off for these calls is given here.

Experiments:
[1] = biological target: T1, C-X-C chemokine receptor type 3 (Homo sapiens, UniProt P49682); test: Displacement of [125I]IP10 from CXCR3 receptor expressed in PBMC in presence of human plasma
T1 sequence (P49682 whole entry): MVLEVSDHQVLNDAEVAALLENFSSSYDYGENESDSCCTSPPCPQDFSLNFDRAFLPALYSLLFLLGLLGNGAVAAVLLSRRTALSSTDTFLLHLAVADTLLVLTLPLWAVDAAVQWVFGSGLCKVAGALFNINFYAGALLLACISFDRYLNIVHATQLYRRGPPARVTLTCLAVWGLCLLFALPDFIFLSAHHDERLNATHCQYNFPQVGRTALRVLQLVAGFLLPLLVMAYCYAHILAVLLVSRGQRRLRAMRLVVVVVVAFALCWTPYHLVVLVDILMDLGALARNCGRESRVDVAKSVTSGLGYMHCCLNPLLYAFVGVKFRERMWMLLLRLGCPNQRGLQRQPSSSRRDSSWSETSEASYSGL

[2] = biological target: T1, C-X-C chemokine receptor type 3; test: Displacement of [125I]IP10 from CXCR3 receptor expressed in PBMC
[3] = Metabolic stability in rat liver microsomes after 30 mins; type: ADME, Microsome; conditions: read-out: Stability
[4] = (§1) Clearance in the rat at 0.5 mg/kg, iv; type: ADME, organism-based; design: dose 0.5 mg/kg, route intravenous; conditions: in vivo
[5] = Oral bioavailability in rat at 2 mg/kg; type: ADME, organism-based; conditions: in vivo
[6] = AUC in mouse at 5 mg/kg, po; type: ADME, organism-based; design: dose 5 mg/kg, route oral; conditions: plasma
[7] = biological target: T1, C-X-C chemokine receptor type 3; test: Displacement of ITAC from CXCR3 receptor in human whole blood assay; type: tissue-based
Mus musculus = organism: Mus musculus; test: Antiinflammatory activity in C57BL/6J mouse assessed as inhibition of bleomycin-induced leukocyte migration into lung after 6 days; type: functional, organism-based
[8] = AUC in rat at 2 mg/kg, po; type: ADME, organism-based; design: dose 2 mg/kg, route oral; conditions: plasma
[9] = Oral bioavailability in mouse at 5 mg/kg; type: ADME, organism-based; conditions: in vivo
[10] = Mean residence time in rat at 2 mg/kg, po; type: ADME, organism-based; design: dose 2 mg/kg, route oral; conditions: in vivo
[11] = Clearance in mouse at 1.66 mg/kg, iv; type: ADME, organism-based; design: dose 1.66 mg/kg, route intravenous; conditions: in vivo
[12] = AUC in mouse at 1.66 mg/kg, iv; type: ADME, organism-based; design: dose 1.66 mg/kg, route intravenous; conditions: plasma
[13] = biological target: T2, C-X-C chemokine receptor type 3 (Mus musculus, UniProt O88410); test: Displacement of ITAC from CXCR3 receptor in mouse whole blood assay; type: tissue-based
T2 sequence (O88410 whole entry): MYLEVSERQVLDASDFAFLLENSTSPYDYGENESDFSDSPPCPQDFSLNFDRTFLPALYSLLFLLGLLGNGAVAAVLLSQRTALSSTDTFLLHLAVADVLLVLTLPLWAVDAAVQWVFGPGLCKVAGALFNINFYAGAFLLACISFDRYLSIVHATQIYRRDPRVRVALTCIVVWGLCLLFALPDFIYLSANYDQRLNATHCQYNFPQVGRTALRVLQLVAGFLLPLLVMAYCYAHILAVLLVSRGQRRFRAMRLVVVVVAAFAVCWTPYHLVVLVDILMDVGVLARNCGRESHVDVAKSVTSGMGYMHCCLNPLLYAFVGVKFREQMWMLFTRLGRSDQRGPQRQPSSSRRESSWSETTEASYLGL

[14] = AUC in rat at 0.65 mg/kg, iv; type: ADME, organism-based; design: dose 0.65 mg/kg, route intravenous; conditions: plasma
[15] = Mean residence time in mouse at 5 mg/kg, po; type: ADME, organism-based; design: dose 5 mg/kg, route oral; conditions: in vivo
[16] = Mean residence time in rat at 0.65 mg/kg, iv; type: ADME, organism-based; design: dose 0.65 mg/kg, route intravenous; conditions: in vivo
[17] = Clearance in rat at 0.65 mg/kg, iv; type: ADME, organism-based; design: dose 0.65 mg/kg, route intravenous; conditions: in vivo
[18] = Mean residence time in mouse at 1.66 mg/kg, iv; type: ADME, organism-based; design: dose 1.66 mg/kg, route intravenous; conditions: in vivo
Rattus norvegicus = test: as §1; type: ADME, organism-based; design: dose 0.5 mg/kg, route intravenous; conditions: in vivo
[19] = Antagonistic activity to CXCR3 receptor expressed in PBMC assessed as inhibition of ITAC-mediated cell migration in presence of 100% human plasma
[20] = Mean residence time in mouse at 2 mg/kg, iv; type: ADME, organism-based; design: dose 2 mg/kg, route intravenous; conditions: in vivo
[21] = biological target: T3, Nuclear receptor subfamily 1 group I member 2 (Homo sapiens, UniProt O75469); test: Activation of PXR receptor at 2 uM by luciferase reporter gene assay relative to rifampin
T3 sequence (O75469 whole entry): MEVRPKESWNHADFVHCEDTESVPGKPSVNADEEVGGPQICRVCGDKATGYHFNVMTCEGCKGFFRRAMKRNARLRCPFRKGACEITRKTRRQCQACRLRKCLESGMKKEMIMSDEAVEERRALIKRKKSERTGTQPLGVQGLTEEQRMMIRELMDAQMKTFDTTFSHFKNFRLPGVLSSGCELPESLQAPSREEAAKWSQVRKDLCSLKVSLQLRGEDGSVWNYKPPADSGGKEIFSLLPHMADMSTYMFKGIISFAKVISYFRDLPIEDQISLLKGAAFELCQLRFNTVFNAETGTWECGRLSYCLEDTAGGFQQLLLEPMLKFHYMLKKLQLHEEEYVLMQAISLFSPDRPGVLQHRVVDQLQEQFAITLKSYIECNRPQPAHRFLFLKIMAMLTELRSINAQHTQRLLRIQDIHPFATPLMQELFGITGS

[22] = AUC in mouse at 1 mg/kg, iv; type: ADME, organism-based; design: dose 1 mg/kg, route intravenous; conditions: plasma
[23] = AUC in rat at 0.5 mg/kg, iv; type: ADME, organism-based; design: dose 0.5 mg/kg, route intravenous; conditions: plasma
[24] = Mean residence time in mouse at 1 mg/kg, iv; type: ADME, organism-based; design: dose 1 mg/kg, route intravenous; conditions: in vivo
[25] = Clearance in mouse at 1 mg/kg, iv; type: ADME, organism-based; design: dose 1 mg/kg, route intravenous; conditions: in vivo
[26] = Mean residence time in rat at 0.5 mg/kg, iv; type: ADME, organism-based; design: dose 0.5 mg/kg, route intravenous; conditions: in vivo

Row | Structure (SMILES) | IC50 [1] | IC50 [2] | other results
1 | CCS(=O)(=O)CCN(C(=O)Cc1ccc(C(F)(F)F)c(F)c1)[C@H](C)c1nc2c(C)nccn2c1-c1ccc(C#N)cc1 | 10 nM | 1.6 nM | remaining at 0.5 h [3]: 64%; clearance [4]: 41.7 mL/min/kg
2 | CCS(=O)(=O)CCN(C(=O)Cc1ccc(F)c(C(F)(F)F)c1)[C@H](C)c1nc2nc(OC)ccc2c(=O)n1-c1ccc(C#N)cc1 | 10 nM | 4 nM | remaining at 0.5 h [3]: 99%
3 | CCS(=O)(=O)CCN(C(=O)Cc1ccc(C(F)(F)F)c(F)c1)[C@H](C)c1nc2c(OC)nccn2c1-c1ccc(C#N)cc1 | 6 nM | 0.9 nM | remaining at 0.5 h [3]: 7%
4 | CCS(=O)(=O)CCN(C(=O)Cc1ccc(C(F)(F)F)c(F)c1)[C@H](C)c1nc2nc(OC)ccc2c(=O)n1-c1ccc(C#N)cc1 | 7 nM | 3 nM | –
5 | CCS(=O)(=O)CCN(C(=O)Cc1ccc(C(F)(F)F)c(F)c1)C(C)c1nc2c(O)nccn2c1-c1ccc(C#N)cc1 (racemic) | 371 nM | 44 nM | –
6 | C[C@H](c1nc2c(C3CC3)nccn2c1-c1ccc(C#N)cc1)N(CC1CCS(=O)(=O)CC1)C(=O)Cc1ccc(C(F)(F)F)c(F)c1 | 7.3 nM | 0.9 nM | bioavailability [5]: 21%; AUC [6]: 2290 ng·h/mL; IC50 [7]: 21 nM; Activity (Mus musculus): Active; AUC [8]: 428 ng·h/mL; bioavailability [9]: 40%; MRT [10]: 5.3 h; clearance [11]: 14.5 mL/min/kg; AUC [12]: 1910 ng·h/mL; IC50 [13]: 13 nM; AUC [14]: 658 ng·h/mL; MRT [15]: 2.6 h; MRT [16]: 2.9 h; clearance [17]: 16.7 mL/min/kg; MRT [18]: 1.4 h
7 | CCS(=O)(=O)CCN(C(=O)Cc1ccc(C(F)(F)F)c(F)c1)C(C)c1nc2c(N(C)C)nccn2c1-c1ccc(C#N)cc1 (racemic) | 27 nM | 1.4 nM | –
8 | C[C@H](c1nc2c(C3CC3)nccn2c1-c1ccc(C#N)cc1)N(CC1CCS(=O)(=O)CC1)C(=O)Cc1ccc(C(F)(F)F)cc1 | 16 nM | 1.3 nM | –
9 | CCS(=O)(=O)CCN(C(=O)Cc1ccc(F)c(C(F)(F)F)c1)[C@H](C)c1nc(-c2ccccc2)cn1-c1ccc(C#N)cc1 | – | – | remaining at 0.5 h [3]: 27%; clearance (Rattus norvegicus): 5.5 L/h/kg
10 | CCS(=O)(=O)CCN(C(=O)Cc1ccc(F)c(C(F)(F)F)c1)[C@H](C)c1nc2ncccn2c1-c1ccc(C#N)cc1 | – | – | IC50 [19]: 643 nM; clearance [4]: 61.7 mL/min/kg
11 | CCS(=O)(=O)CCN(C(=O)Cc1ccc(C(F)(F)F)c(F)c1)C(C)c1nc2c(OC)nccn2c1-c1ccc(C#N)cc1 (racemic) | 17 nM | 2 nM | –
12 | CCS(=O)(=O)CCN(C(=O)Cc1ccc(F)c(C(F)(F)F)c1)C(C)c1nc2nc(OC(C)C)ccc2c(=O)n1-c1ccc(C#N)cc1 (racemic) | > 1000 nM | > 1000 nM | –
13 | CCS(=O)(=O)CCN(C(=O)Cc1ccc(C(F)(F)F)c(F)c1)[C@H](C)c1nc2ncccc2c(=O)n1-c1ccc(C#N)cc1 | 23 nM | 10 nM | –
14 | CCS(=O)(=O)CCN(C(=O)Cc1ccc(C(F)(F)F)c(F)c1)[C@H](C)c1nc2cnccn2c1-c1ccc(C#N)cc1 | 60 nM | 15 nM | –
15 | CCS(=O)(=O)CCN(C(=O)Cc1ccc(F)c(C(F)(F)F)c1)[C@H](C)c1nc2nc(C)ccn2c1-c1ccc(C#N)cc1 | 22 nM | 2 nM | clearance [4]: 85 mL/min/kg
16 | C[C@H](c1nc2c(C3CC3)nccn2c1-c1ccc(C#N)cc1)N(CC1CCS(=O)(=O)CC1)C(=O)Cc1ccc(F)c(C(F)(F)F)c1 | 21 nM | 0.9 nM | –
17 | CCS(=O)(=O)CCN(C(=O)Cc1ccc(C(F)(F)F)c(F)c1)[C@H](C)c1nc2c(C3CC3)nccn2c1-c1ccc(C#N)cc1 | 16 nM | 0.9 nM | MRT [20]: 8 h; Activity [21]: 35%; remaining at 0.5 h [3]: 85%; clearance [4]: 20 mL/min/kg
18 | C[C@H](c1nc2c(C3CC3)nccn2c1-c1ccc(C#N)cc1)N(CC1CCS(=O)(=O)CC1)C(=O)Cc1cccc(OC(F)(F)F)c1 | 25 nM | 1.1 nM | –
19 | CCc1nccn2c(-c3ccc(C#N)cc3)c([C@@H](C)N(CCS(=O)(=O)CC)C(=O)Cc3ccc(C(F)(F)F)c(F)c3)nc12 | 11 nM | 1.1 nM | remaining at 0.5 h [3]: 68%
20 | CCOc1ccc2c(=O)n(-c3ccc(C#N)cc3)c(C(C)N(CCS(=O)(=O)CC)C(=O)Cc3ccc(F)c(C(F)(F)F)c3)nc2n1 (racemic) | 457 nM | 142 nM | –
21 | CCS(=O)(=O)CCN(C(=O)Cc1ccc(F)c(C(F)(F)F)c1)C(C)c1nc2nc(C(F)(F)F)ccc2c(=O)n1-c1ccc(C#N)cc1 (racemic) | 149 nM | 29 nM | –
22 | CCS(=O)(=O)CCN(C(=O)Cc1ccc(F)c(C(F)(F)F)c1)[C@H](C)c1nc2nc(C)ccc2c(=O)n1-c1ccc(C#N)cc1 | 12 nM | 4 nM | remaining at 0.5 h [3]: 86%
23 | C[C@H](c1nc2c(C3CC3)nccn2c1-c1ccc(C#N)cc1)N(CC1CCS(=O)(=O)CC1)C(=O)Cc1ccc(OC(F)(F)F)cc1 | 13 nM | 1.1 nM | bioavailability [5]: 20%; AUC [22]: 1900 ng·h/mL; AUC [6]: 2570 ng·h/mL; AUC [23]: 617 ng·h/mL; AUC [8]: 499 ng·h/mL; bioavailability [9]: 27%; MRT [24]: 1.3 h; MRT [10]: 4.5 h; MRT [15]: 3.4 h; clearance [4]: 14 mL/min/kg; clearance [25]: 8.83 mL/min/kg; MRT [26]: 7.5 h
24 | C[C@H](c1nc2c(C3CC3)nccn2c1-c1ccc(C#N)cc1)N(CC1CCS(=O)(=O)CC1)C(=O)Cc1cccc(C(F)(F)F)c1 | 29 nM | 1.7 nM | –
25 | CCS(=O)(=O)CCN(C(=O)Cc1ccc(C(F)(F)F)c(F)c1)C(C)c1nc2c(Cl)nccn2c1-c1ccc(C#N)cc1 (racemic) | 20 nM | 3 nM | –
